Tests used:
Settings in all cases: 72 h
[1] = tested on: Calu-3; experiment: drug sensitivity score (DSS) for viability; higher = more toxic; extreme values may be limits of the assay
[2] = tested on: HepG2; experiment: as above
[3] = tested on: Caco-2; experiment: as above
[4] = tested on: Vero E6; experiment: as above
[5] = tested on: Calu-3; experiment: relative viability EC50 (midpoint between 100% and the lowest measured viability); higher = less toxic
[6] = tested on: HepG2; experiment: as above
[7] = tested on: Caco-2; experiment: as above
[8] = tested on: Vero E6; experiment: as above
[9] = tested on: Calu-3; experiment: cell viability relative to DMSO; higher = less toxic
[10] = tested on: HepG2; experiment: as above
[11] = tested on: Caco-2; experiment: as above
[12] = tested on: Vero E6; experiment: as above
[13] = tested on: U2OS; experiment: drug sensitivity score (DSS) for viability; higher = more toxic; extreme values may be limits of the assay
[14] = tested on: U2OS; experiment: relative viability EC50 (midpoint between 100% and the lowest measured viability); higher = less toxic
[15] = tested on: U2OS; experiment: cell viability relative to DMSO; higher = less toxic

Row | SMILES | drug sensitivity score [1] | drug sensitivity score [2] | drug sensitivity score [3] | drug sensitivity score [4] | relative viability EC50 [5] [µM] | relative viability EC50 [6] [µM] | relative viability EC50 [7] [µM] | relative viability EC50 [8] [µM] | cell viability ([9]; 1 nM) [%] | cell viability ([9]; 10 nM) [%] | cell viability ([9]; 100 nM) [%] | cell viability ([9]; 1000 nM) [%] | cell viability ([9]; 10000 nM) [%] | cell viability ([10]; 1 nM) [%] | cell viability ([10]; 10 nM) [%] | cell viability ([10]; 100 nM) [%] | cell viability ([10]; 1000 nM) [%] | cell viability ([10]; 10000 nM) [%] | cell viability ([11]; 1 nM) [%] | cell viability ([11]; 10 nM) [%] | cell viability ([11]; 100 nM) [%] | cell viability ([11]; 1000 nM) [%] | cell viability ([11]; 10000 nM) [%] | cell viability ([12]; 1 nM) [%] | cell viability ([12]; 10 nM) [%] | cell viability ([12]; 100 nM) [%] | cell viability ([12]; 1000 nM) [%] | cell viability ([12]; 10000 nM) [%] | drug sensitivity score [13] | relative viability EC50 [14] [µM] | cell viability ([15]; 1 nM) [%] | cell viability ([15]; 10 nM) [%] | cell viability ([15]; 100 nM) [%] | cell viability ([15]; 1000 nM) [%] | cell viability ([15]; 10000 nM) [%]
1 | NC(=O)c1cccnc1 [nicotinamide] | 0 | 0 | 0 | 0 | > 10 | > 10 | > 10 | > 10 | 107 | 114 | 120 | 110 | 94.1 | 114 | 103 | 101 | 101 | 90.2 | 100 | 107 | 94.9 | 99.2 | 101 | 107 | 108 | 102 | 104 | 99.5 |  |  |  |  |  |  | 
2 | O=C(c1ccccn1)c1cnn2c(-c3ccncc3)ccnc12 [ocinaplon] | 0 | 0 |  | 0 | > 10 | > 10 |  | > 10 | 98.7 | 93.6 | 104 | 95.7 | 107 | 108 | 98.7 | 107 | 93.5 | 95.1 |  |  |  |  |  | 104 | 99.2 | 100 | 102 | 102 | 0 | > 10 | 94 | 103 | 99.2 | 102 | 99.2
3 | Cn1c(=O)c2[nH]c(Br)nc2n(C)c1=O [pamabrom] | 0 | 0 | 0 |  | > 10 | > 10 | > 10 |  | 105 | 99.3 | 100 | 103 | 105 | 100 | 94.8 | 92.9 | 89.7 | 112 | 90.3 | 103 | 91 | 109 | 101 |  |  |  |  |  | 0 | > 10 | 98.6 | 99.8 | 97.9 | 102 | 96.4
4 | Cc1cc(CCCOc2c(C)cc(-c3noc(C(F)(F)F)n3)cc2C)on1 [pleconaril] | 0 | 0 | 0 | 0 | > 10 | > 10 | > 10 | > 10 | 97.8 | 93.7 | 96 | 90.3 | 93.9 | 98.6 | 94.2 | 102 | 103 | 112 | 96.6 | 102 | 103 | 102 | 105 | 94.2 | 96.8 | 91.6 | 92.5 | 98 |  |  |  |  |  |  | 
